Results on twelve compounds are retold here after patent US6093744A, “N-acyl sulfamic acid esters useful as hypocholesterolemic agents” (Warner-Lambert Company, priority 1998, dated 2000).

Assay [1] relates to Plasma TC. As to the kind of experiment: in vivo screen designated APCC (high fat, high cholesterol diet, plasma cholesterol). The arrangement: species or system male Sprague-Dawley rats. The settings on record: rats, PCC diet with 0.5% cholic acid overnight, vehicle CMC/Tween. The source says: In one in vivo screen designated APCC, male Sprague-Dawley rats (200 to 225 g) were randomly divided into treatment groups and dosed at 4 PM with either vehicle (CMC/Tween) or suspensions of compounds in vehicle. The normal chow diet was then replaced with a high fat, high cholesterol diet (designated PCC) containing 0.5% cholic acid. The rats consumed this diet ad libitum during the night and were sacrificed at 8 AM to obtain blood samples for cholesterol analysis using standard procedures. Statistical differences between mean cholesterol values for the same vehicle were determined using analysis of variance followed by Fisher's least significant test.

Assay [2] deals with T1, acyl-CoA: cholesterol acyltransferase (ACAT) (Rattus norvegicus, UniProt Q7TQM4).
T1 construct: tissue preparation containing rat liver microsomes; from tissue; host or cells: rat liver microsomes
T1 sequence (Q7TQM4 1-524): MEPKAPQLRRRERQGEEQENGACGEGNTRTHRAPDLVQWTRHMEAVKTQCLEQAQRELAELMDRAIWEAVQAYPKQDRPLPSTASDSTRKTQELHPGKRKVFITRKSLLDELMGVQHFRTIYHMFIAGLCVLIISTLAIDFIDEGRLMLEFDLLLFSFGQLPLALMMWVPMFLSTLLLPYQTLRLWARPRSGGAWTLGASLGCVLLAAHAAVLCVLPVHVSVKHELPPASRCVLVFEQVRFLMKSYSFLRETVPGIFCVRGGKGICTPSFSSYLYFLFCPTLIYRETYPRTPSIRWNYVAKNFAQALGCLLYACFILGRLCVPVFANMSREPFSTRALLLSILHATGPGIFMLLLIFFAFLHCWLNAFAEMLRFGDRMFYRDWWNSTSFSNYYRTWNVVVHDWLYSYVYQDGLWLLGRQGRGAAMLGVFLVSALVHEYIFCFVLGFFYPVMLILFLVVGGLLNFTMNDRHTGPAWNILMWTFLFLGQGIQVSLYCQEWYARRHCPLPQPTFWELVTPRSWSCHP
Nature of the assay: In vitro inhibition of acylation of cholesterol by oleic acid (LAI), rat liver microsomes. In kind it is biochemical. The settings on record: radiolabeled oleic acid. The protocol: The ability of representative compounds of the present invention to inhibit ACAT was measured using an in vitro test more fully described in Field F J, Salone R G, Biochemica et Biophysica 1982; 712:557-570. The test assesses the ability of a test compound to inhibit the acylation of cholesterol by oleic acid by measuring the amount of radiolabeled cholesterol oleate formed from radiolabeled oleic acid in a tissue preparation containing rat liver microsomes.
In general terms: Microsomes from liver hold many membrane-bound enzymes, among them those of drug oxidation.

Setting [3] is: Rattus norvegicus, dose 10 mg/kg.

Where a name gives a salt, the structure may show the parent alone. Bounds are passed on as bounds.

In the case of `CC(C)c1cc(C(C)C)c(CC(=O)NS(=O)(=O)Oc2c(C(C)C)cc(NC(=O)[C@H](CCCCNC(=O)OC(C)(C)C)NC(=O)OC(C)(C)C)cc2C(C)C)c(C(C)C)c1` [Example 1, (S)-[5-tert-Butoxycarbonylamino-5-(3,5-diisopropyl-4-{[(2,4,6-triisopropyl-phenyl)-acetyl]-sulfamoyloxy}-phenylcarbanoyl)-pentyl]-carbamic acid tert-butyl ester], the change in vivo at 1 mg/kg in assay [1] (Rattus norvegicus, dose 1 mg/kg) stood at 7%. In addition, the IC50 (in general, the concentration that inhibits the measured activity by half) in assay [2] was 23 µM.
Turning to `CC(C)c1cc(C(C)C)c(CC(=O)NS(=O)(=O)Oc2c(C(C)C)cc(NC(=O)[C@@H](N)CCCCN)cc2C(C)C)c(C(C)C)c1` [Example 2, (S)-[(2,4,6-Triisopropyl-phenyl)-acetyl]-sulfamic acid 4-(2,6-diamino-hexanoylamino)-2,6-diisopropyl-phenyl ester dihydrochloride], the change in vivo at 10 mg/kg in assay [1] (setting [3]) is -60%. In assay [2], this compound displayed an IC50 greater than 50 µM.
In the case of `CC(C)c1cc(C(C)C)c(CC(=O)NS(=O)(=O)Oc2c(C(C)C)cc(NC(=O)CNC(=O)OC(C)(C)C)cc2C(C)C)c(C(C)C)c1` [Example 3], the change in vivo at 30 mg/kg in assay [1] (Rattus norvegicus) was -40%. Further, in assay [2], the IC50 was determined as 18 µM.
Regarding `CC(C)c1cc(C(C)C)c(CC(=O)NS(=O)(=O)Oc2c(C(C)C)cc(NC(=O)CN)cc2C(C)C)c(C(C)C)c1` [Example 4, [(2,4,6-Triisopropyl-phenyl)-acetyl]-sulfamic acid 4-(2-amino-acetylamino)-2,6-diisopropyl-phenyl ester], the change in vivo at 10 mg/kg in assay [1] (setting [3]) is -65%. This compound displayed an IC50 in assay [2] of 48 µM.
For `CSCCC(N)C(=O)Nc1cc(C(C)C)c(OS(=O)(=O)NC(=O)Cc2c(C(C)C)cc(C(C)C)cc2C(C)C)c(C(C)C)c1` (centres unmarked) [Example 6, [(2,4,6-Triisopropyl-phenyl)-acetyl]-sulfamic acid 4-(2-amino-4-methylsulfanyl-butyrylamino)-2,6-diisopropyl-phenyl ester trifluoroacetate] the same measures were -72% and 750 µM.
On to `CCOC(=O)CCNC(=O)Nc1cc(C(C)C)c(OS(=O)(=O)NC(=O)Cc2c(C(C)C)cc(C(C)C)cc2C(C)C)c(C(C)C)c1` [Example 7], for which the change in vivo at 30 mg/kg in assay [1] (Rattus norvegicus) was -30%. This compound also yielded an IC50 in assay [2] of 49 µM.
For `CC(C)c1cc(C(C)C)c(CC(=O)NS(=O)(=O)Oc2c(C(C)C)cc(NC(=O)NCCC(=O)O)cc2C(C)C)c(C(C)C)c1` [Example 8], in assay [1] (setting [3]), the change in vivo at 10 mg/kg was -15%. For the same compound, the IC50 in assay [2] was greater than 50 µM.
In the same order, the values of `CC(C)c1cc(C(C)C)c(CC(=O)NS(=O)(=O)Oc2c(C(C)C)cc(NC(=O)C(N)Cc3c[nH]c4ccccc34)cc2C(C)C)c(C(C)C)c1` (centres unmarked) [Example 9] are -25% and 24 µM.
Consider `CC(C)c1cc(C(C)C)c(CC(=O)NS(=O)(=O)Oc2c(C(C)C)cc(NC(=O)CCCCN)cc2C(C)C)c(C(C)C)c1` [Example 10, [(2,4,6-Triisopropyl-phenyl)-acetyl]-sulfamic acid 4-(5-amino-pentanoylamino)-2,6-diisopropyl-phenyl ester trifluoroacetate(1:1) (salt)], for which the change in vivo at 10 mg/kg in assay [1] (setting [3]) was -15%.
Take `CC(C)c1cc(C(C)C)c(CC(=O)NS(=O)(=O)Oc2c(C(C)C)cc(OCCCN(C)C)cc2C(C)C)c(C(C)C)c1.Cl` [Example 15, [(2,4,6-Triisopropyl-phenyl)-acetyl]-sulfamic acid 4-(3-dimethylamino-propoxy)-2,6-diisopropyl-phenyl ester hydrochloride salt]: the “APCC % Change in Plasma TC” value in assay [1] (dose 10 mg/kg) is listed as -26%.
For `CC(C)c1cc(C(C)C)c(CC(=O)NS(=O)(=O)Oc2c(C(C)C)cc(NCCO)cc2C(C)C)c(C(C)C)c1` [Example 27, [(2,4,6-Triisopropyl-phenyl)-acetyl]-sulfamic acid 4-(2-hydroxy-ethylamino)-2,6-diisopropyl-phenyl ester], half-maximal inhibition in assay [2] (IC50) was put at 43 µM. In other words, the double-digit micromolar range.
Still for that read-out and setting: the figure for `CC(C)c1cc(C(C)C)c(CC(=O)NS(=O)(=O)Oc2c(C(C)C)cc(S(N)(=O)=O)cc2C(C)C)c(C(C)C)c1` [Example 35, [(2,4,6-Triisopropyl-phenyl)-acetyl]-sulfamic acid 2,6-diisopropyl-4-sulfamoyl-phenyl ester] is 50 µM.
